ChEMBL document CHEMBL1201862, “PubChem BioAssay data set” (2004)
The source made the active and inactive calls.

Key:
[1] = target: T1, Sentrin-specific protease 7 (Homo sapiens, UniProt Q9BQF6); type: functional;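 also: Luminescence-based dose-response confirmation of ultra-high-throughput screening hits, measuring inhibition of SENP7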
T1 sequence (Q9BQF6 whole entry): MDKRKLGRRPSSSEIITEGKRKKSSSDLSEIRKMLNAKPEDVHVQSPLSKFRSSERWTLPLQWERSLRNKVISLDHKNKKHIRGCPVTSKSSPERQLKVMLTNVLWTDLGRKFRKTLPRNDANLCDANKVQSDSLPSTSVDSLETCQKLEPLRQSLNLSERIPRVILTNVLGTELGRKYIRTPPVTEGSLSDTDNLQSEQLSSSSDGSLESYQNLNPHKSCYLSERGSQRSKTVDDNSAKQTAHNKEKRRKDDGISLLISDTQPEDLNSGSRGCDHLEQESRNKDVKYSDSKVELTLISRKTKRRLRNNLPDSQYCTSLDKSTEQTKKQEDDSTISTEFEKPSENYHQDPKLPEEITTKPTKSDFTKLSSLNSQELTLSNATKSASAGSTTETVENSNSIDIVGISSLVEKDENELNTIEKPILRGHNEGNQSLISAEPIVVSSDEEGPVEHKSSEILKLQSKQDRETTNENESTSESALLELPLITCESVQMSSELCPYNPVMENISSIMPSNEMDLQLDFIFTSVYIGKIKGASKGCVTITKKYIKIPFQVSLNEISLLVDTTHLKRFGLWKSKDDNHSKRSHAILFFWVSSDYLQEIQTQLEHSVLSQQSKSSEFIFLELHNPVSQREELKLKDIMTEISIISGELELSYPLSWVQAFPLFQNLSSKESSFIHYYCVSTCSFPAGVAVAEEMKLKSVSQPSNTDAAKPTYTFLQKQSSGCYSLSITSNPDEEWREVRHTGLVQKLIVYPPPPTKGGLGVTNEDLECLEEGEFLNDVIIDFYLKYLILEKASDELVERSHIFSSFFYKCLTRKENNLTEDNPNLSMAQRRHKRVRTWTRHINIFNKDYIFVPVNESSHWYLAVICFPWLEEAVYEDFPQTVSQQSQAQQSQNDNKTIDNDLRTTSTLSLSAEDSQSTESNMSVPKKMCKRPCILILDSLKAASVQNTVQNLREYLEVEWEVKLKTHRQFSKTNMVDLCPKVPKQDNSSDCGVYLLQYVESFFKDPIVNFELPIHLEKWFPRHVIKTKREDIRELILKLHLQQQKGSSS

[2] = target: T2, Sentrin-specific protease 6 (Homo sapiens, UniProt Q9GZR1); type: functional;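 also: Luminescence-based dose-response confirmatory assay of SENP6 inhibition, following up an ultra-high-throughput screen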
T2 sequence (Q9GZR1 whole entry): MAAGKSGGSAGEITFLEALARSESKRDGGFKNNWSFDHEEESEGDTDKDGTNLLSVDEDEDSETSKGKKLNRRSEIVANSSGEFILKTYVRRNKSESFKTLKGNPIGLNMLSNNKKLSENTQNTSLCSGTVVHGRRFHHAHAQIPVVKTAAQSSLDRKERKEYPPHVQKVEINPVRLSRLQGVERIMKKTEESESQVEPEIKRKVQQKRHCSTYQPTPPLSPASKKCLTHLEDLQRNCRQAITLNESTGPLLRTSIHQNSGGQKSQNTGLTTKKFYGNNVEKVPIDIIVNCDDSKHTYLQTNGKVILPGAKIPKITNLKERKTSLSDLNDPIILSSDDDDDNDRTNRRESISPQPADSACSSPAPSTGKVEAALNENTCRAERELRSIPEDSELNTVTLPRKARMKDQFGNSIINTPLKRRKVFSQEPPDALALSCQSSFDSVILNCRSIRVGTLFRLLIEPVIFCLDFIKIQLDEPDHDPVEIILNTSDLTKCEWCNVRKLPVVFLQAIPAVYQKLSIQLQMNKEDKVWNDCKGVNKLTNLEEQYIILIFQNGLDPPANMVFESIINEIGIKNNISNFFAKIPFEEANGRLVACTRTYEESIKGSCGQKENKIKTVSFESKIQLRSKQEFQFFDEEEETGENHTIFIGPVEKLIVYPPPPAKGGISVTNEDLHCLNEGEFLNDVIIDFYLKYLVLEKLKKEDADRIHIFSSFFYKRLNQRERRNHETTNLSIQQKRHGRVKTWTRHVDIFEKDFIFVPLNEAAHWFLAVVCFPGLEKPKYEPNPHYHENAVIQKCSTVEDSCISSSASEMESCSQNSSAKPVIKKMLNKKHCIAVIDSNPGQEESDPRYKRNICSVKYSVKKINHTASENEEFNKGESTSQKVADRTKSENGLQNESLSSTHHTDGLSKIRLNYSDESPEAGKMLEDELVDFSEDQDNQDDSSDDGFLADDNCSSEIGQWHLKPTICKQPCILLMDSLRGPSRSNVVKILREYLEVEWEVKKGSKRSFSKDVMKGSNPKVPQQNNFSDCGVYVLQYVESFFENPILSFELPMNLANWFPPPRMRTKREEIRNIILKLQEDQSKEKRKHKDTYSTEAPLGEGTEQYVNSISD

Caspase-3 = target: T3, Caspase-3 (Homo sapiens, UniProt P42574); type: functional;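 also: Dose-response selectivity test against caspase-3 for candidate inhibitors of sentrin-specific proteases (SENPs)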
T3 sequence (P42574 whole entry): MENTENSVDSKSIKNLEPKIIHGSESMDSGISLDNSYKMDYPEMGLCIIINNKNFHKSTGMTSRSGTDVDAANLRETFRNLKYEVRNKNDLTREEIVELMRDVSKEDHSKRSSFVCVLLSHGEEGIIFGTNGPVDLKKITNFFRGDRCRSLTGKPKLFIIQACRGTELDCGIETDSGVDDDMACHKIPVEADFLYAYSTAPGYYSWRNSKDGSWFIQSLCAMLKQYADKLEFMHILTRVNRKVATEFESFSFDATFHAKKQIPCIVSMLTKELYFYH

[3] = target: T4, Sentrin-specific protease 8 (Homo sapiens, UniProt Q96LD8); type: functional;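 also: luminescence read-out of SENP8 inhibition, dose-response confirmation following an ultra-high-throughput screen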
T4 sequence (Q96LD8 whole entry): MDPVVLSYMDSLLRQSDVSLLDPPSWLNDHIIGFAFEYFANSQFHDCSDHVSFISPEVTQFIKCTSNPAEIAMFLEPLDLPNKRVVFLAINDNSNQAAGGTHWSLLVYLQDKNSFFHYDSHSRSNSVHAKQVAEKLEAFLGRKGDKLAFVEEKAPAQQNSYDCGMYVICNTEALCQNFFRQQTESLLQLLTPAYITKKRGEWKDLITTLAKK

[4] = target: T5, Apoptotic protease-activating factor 1 (Homo sapiens, UniProt O14727); type: functional
T5 sequence (O14727 whole entry): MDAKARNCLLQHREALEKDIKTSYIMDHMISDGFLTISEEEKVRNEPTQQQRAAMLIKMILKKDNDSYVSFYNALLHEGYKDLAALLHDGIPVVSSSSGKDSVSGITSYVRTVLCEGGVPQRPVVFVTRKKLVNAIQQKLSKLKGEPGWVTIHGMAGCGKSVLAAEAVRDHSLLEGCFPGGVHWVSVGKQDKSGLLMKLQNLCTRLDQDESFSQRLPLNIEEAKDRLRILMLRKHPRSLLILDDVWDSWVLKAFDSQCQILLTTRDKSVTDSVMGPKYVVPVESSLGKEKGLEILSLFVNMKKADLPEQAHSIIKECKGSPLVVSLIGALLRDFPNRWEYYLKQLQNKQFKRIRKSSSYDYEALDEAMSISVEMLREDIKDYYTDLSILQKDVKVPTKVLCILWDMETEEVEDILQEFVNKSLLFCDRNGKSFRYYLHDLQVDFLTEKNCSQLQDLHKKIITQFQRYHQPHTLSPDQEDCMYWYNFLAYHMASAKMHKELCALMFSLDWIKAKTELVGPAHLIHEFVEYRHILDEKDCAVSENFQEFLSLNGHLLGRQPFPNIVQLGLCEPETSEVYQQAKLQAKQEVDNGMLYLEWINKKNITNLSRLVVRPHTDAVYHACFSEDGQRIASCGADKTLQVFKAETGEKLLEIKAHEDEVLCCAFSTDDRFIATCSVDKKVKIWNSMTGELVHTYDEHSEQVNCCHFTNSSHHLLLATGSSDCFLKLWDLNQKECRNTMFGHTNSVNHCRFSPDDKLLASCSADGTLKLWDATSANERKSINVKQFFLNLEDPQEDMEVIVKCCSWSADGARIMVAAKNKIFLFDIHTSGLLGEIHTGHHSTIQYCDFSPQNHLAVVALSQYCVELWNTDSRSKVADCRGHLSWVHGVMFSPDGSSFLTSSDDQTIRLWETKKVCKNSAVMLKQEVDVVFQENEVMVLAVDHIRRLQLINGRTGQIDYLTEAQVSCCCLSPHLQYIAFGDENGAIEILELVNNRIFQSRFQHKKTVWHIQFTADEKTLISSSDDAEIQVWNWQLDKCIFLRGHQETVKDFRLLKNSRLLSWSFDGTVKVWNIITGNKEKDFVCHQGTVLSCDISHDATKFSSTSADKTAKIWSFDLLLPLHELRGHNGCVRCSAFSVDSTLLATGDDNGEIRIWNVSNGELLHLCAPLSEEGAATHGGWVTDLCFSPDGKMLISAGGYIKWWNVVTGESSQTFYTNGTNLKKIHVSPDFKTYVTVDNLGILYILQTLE

Nonstructural protein 1 = Nonstructural protein 1 (Influenza A virus, UniProt Q194T2); type: functional, Influenza A virus (A/California/07/2009(H1N1))
BJ [5] = assay: cytotoxicity toward BJ-TERT-LT-ST fibroblasts, dose response, cell-based, RAS-independent, luminescence (AID 1935); type: functional; conditions: Homo sapiens;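 also: BJ fibroblasts immortalized with TERT plus LT and ST oncogenes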
BJ [6] = assay: cells; type: functional, cell-based; conditions: Homo sapiens
BJ [7] = assay: cytotoxicity toward BJ-TERT fibroblasts, dose response, cell-based, RAS-independent, luminescence (AID 1933); type: functional; conditions: Homo sapiens
[8] = cytotoxicity toward DRD oncogenic fibroblasts, dose response, cell-based, non-viral oncogenic, luminescence (AID 1934); type: functional; conditions: Homo sapiens
BJ [9] = assay: cytotoxicity toward Ras-transformed BJeLR fibroblasts, dose response, cell-based, alamar blue fluorescence, cherrypicked samples (AID 2631); type: functional; conditions: Homo sapiens;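 also: confirmatory dose-response assay in RAS-dependent BJ fibroblasts engineered with TERT, LT and ST, with cytotoxicity read by fluorescence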
Cytochrome P450 2C9 = Cytochrome P450 2C9 (Homo sapiens, UniProt P11712)
[10] = Luminescence Cell-Based Dose Confirmation HTS to Identify Activators of 5'UTR Stem-Loop Driven Alpha-Synuclein mRNA Translation in H4 Neuroglioblastoma Cells. [Related pubchem assays: 1829 (Project Summary), 1814 (Primary HTS)]; type: functional
H4 = assay: Luminescence Cell-Based Dose Response HTS to Identify Activators of 5'UTR Stem-Loop Driven Prion Protein mRNA Translation in H4 Neuroglioblastoma Cells. [Related pubchem assays: 1829 (Project Summary), 1814 (Primary HTS)]; type: functional; conditions: Homo sapiens
[11] = Luminescence Cell-Based Dose Response HTS to Identify Activators of Luciferase Translation or Activity in H4 […] Cells. [Related pubchem assays: 1829 (Project Summary), 1814 (Primary HTS)]; type: functional
[12] = system: Streptococcus sp. 'group A'; assay: growth inhibition of control SK(-) GAS strain, dose response, counter-screen for streptokinase expression inhibitor project, luminescence, kanamycin, BacTiterGlo, confirmation (AID 1900); type: functional, organism-based
Streptococcus = assay: Group A Streptococcus viability loss, dose response, counter-screen for streptokinase expression inhibitor project, luminescence, BacTiterGlo (AID 1915); type: functional, organism-based;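 also: potency for reduction of bacterial viability or growth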
Streptokinase A = target: T6, Streptokinase A (Streptococcus pyogenes serotype M1, UniProt P10520); assay: S. pyogenes streptokinase expression inhibitors, potency, dose response, plasminogen activation absorbance, OD405 (AID 1914); type: functional, Streptococcus pyogenes M1 GAS;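 also: secreted streptokinase activity via plasminogen activation per viability signal from cell pellet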
T6 sequence (P10520 whole entry): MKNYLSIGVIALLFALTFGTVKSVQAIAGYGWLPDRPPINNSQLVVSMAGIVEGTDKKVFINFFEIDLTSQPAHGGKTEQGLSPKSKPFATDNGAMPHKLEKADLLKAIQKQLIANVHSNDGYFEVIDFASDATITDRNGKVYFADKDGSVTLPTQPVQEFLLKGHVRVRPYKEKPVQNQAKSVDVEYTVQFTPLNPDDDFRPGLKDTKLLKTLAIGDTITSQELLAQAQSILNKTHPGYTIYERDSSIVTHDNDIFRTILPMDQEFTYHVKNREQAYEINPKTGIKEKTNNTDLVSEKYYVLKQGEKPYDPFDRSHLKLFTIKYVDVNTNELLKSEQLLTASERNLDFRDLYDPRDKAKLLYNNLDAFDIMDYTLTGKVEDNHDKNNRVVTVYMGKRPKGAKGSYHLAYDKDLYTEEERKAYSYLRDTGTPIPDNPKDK

Large T antigen = Large T antigen (Simian virus 40, UniProt P03070); type: functional, Betapolyomavirus macacae;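 also: Confirmatory-stage PubChem screen for compounds that inhibit SV40 T antigen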
Sequence of Large T antigen (P03070 whole entry): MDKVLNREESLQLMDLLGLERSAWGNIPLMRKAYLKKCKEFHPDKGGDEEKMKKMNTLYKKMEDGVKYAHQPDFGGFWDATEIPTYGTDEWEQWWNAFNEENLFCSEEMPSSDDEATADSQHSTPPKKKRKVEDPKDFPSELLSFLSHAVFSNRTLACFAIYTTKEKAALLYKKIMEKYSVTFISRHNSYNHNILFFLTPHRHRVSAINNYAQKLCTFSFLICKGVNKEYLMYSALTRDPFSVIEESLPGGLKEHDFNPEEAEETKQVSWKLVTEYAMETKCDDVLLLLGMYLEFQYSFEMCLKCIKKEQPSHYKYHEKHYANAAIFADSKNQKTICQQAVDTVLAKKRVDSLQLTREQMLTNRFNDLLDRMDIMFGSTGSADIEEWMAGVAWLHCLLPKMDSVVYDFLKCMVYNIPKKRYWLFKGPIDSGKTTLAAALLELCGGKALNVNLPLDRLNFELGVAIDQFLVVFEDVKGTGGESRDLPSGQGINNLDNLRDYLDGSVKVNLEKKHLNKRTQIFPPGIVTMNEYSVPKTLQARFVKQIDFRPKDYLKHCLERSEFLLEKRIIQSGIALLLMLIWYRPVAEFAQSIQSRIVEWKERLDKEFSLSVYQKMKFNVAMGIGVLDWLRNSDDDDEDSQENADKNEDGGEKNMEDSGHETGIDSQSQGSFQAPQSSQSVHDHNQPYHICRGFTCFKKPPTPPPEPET

Sequence of Nonstructural protein 1 (Q194T2 whole entry): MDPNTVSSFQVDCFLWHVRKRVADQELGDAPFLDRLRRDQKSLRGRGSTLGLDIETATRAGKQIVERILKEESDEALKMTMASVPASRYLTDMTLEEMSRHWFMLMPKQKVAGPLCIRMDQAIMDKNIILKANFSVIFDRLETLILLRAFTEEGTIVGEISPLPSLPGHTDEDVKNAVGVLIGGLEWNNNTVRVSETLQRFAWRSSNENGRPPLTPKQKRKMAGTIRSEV
Sequence of Cytochrome P450 2C9 (P11712 whole entry): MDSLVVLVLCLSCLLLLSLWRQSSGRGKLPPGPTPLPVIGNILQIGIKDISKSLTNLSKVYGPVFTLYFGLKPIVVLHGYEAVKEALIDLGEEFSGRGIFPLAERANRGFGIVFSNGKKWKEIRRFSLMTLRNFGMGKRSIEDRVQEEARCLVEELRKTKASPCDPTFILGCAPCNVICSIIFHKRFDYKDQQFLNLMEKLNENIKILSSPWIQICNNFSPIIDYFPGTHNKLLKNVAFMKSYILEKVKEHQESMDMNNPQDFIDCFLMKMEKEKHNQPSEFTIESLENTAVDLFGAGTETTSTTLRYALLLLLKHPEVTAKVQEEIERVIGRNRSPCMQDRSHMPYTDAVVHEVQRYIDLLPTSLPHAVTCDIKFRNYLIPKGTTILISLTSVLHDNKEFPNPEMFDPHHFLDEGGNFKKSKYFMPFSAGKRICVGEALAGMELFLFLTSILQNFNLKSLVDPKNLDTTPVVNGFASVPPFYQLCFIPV

Compound: Cc1cc(-n2c(C)cc(C(=O)COc3ccc(F)c(F)c3)c2C)no1
- IC50 [1]: 8.26 µM (active)
- IC50 [2]: 22.7 µM (active)
- IC50 (Caspase-3): 21 µM (active)
- IC50 [3]: 20.4 µM (active)

Compound: CCOC(=O)C1CCCN(C2=C(NS(=O)(=O)c3ccc(Br)cc3)C(=O)c3ccccc3C2=O)C1 (configuration not stated)
- IC50 [4]: 19.5 µM (active)
- IC50 (Nonstructural protein 1): 15.9 µM (active)

Compound: COCCCNC(=O)Cc1c(C)c2c(cc(C)c3c(C(C)(C)C)coc32)oc1=O
- EC50 (BJ [5]): 4.18 µM (active)
- EC50 (BJ [6]): 19.3 µM (inconclusive)
- EC50 (BJ [7]): 8.02 µM (inconclusive)
- EC50 [8]: 10.6 µM (inconclusive)
- EC50 (BJ [9]): 0.473 µM (active)

Compound: Fc1ccc(NC(=S)N2N=CCC2c2ccccc2)cc1 (configuration not stated)
- IC50 [1]: 11.8 µM (active)
- IC50 [2]: 39.3 µM (active)
- IC50 (Caspase-3): 15.9 µM (active)
- IC50 [3]: 38.3 µM (active)

Compound: Clc1ccc(-c2cc3ccccc3[nH]2)cc1
- AC50 (Cytochrome P450 2C9): 11.2 µM (inconclusive)
- IC50 [1]: 8.48 µM (active)
- IC50 [2]: 18 µM (active)
- IC50 (Caspase-3): 16 µM (active)
- EC50 [10]: 3.77 µM (active)
- EC50 (H4): 9.01 µM (active)
- IC50 [3]: 19.9 µM (active)
- EC50 [11]: 106 µM (active)

Compound: C[C@@]12CCC=C[C@H]1[C@H](c1ccc3ccccc3c1Br)N(Cc1ccccc1)C2=O
- EC50 [12]: 4.22 µM (active)
- EC50 (Streptococcus): 5.78 µM (active)
- IC50 [4]: 59.3 µM (active)
- EC50 (Streptokinase A): 5.76 µM (active)

Compound: C/C(=N/OC(=O)c1ccccc1Br)c1ccc(C)cc1
- IC50 [1]: 7.72 µM (active)
- IC50 [2]: 28.1 µM (active)
- IC50 (Caspase-3): 31.3 µM (active)
- IC50 [3]: 46.9 µM (active)

Compound: Cc1cc(C)c2c(CCl)cc(=O)oc2c1
- IC50 (Large T antigen): 9.73 µM (active)
- EC50 (BJ [5]): 0.584 µM (inconclusive)
- EC50 (BJ [6]): 0.676 µM (active)
- EC50 (BJ [7]): 0.784 µM (active)
- EC50 [8]: 0.762 µM (active)
- EC50 (BJ [9]): 0.296 µM (active)
